Assay results: US7419785B2, “Methods and compositions in breast cancer diagnosis and therapeutics” (Baylor College of Medicine, priority 2001, dated 2008)

Columns and labels:
[1] = system: MCF-7 breast cancer cells; experiment: Cell growth of untransfected parental MCF-7 cells in response to estradiol; assay type: cell-based, human; details: calculated from the growth curves
Experimental: (§1) The medium was replaced every 48 h and the cells were harvested and counted on days 2, 4, 6, and 8, respectively. Cell number X 10^4 is shown.
(§2) The WT ER expression construct was prepared in the pcDNAI vector as described previously (Fuqua et al., 1995). Site directed mutagenesis of this construct was then utilized to generate the A908G transition and the entire coding sequence of ER was verified by dideoxysequence analysis in this clone. The generation of stable transfectants was performed as described by Oesterreich et al. (1993) using cotransfection with the G418-selectable expression vector pSVneo at a ration of 25:1 with the ER plasmids into MCF-7 breast cancer cells. […] Two to three-fold elevated levels of total ER protein were detected in the two WT ER and the three Var clones. […] Furthermore, the relative levels of WT or Var sequences were determined by genomic sequence analysis as described above; the ER Var transfectants contained both WT nucleotide (A) and Var nucleotide (G) sequence in approximately equal ratios on the sequencing gels.
(§3) The proliferative response to hormones in breast cancer cell transfectants containing the mutation was tested to determine if this ER mutation confers a selective advantage. […] This cell line was chosen because it was determined that WT ERα was expressed along with the mutant in the original 2/4 typical hyperplastic lesions which were examined. […]

[2] = system: MCF-7 cells stably transfected with the mutant ER (A908G, Lys303Arg); experiment: Cell growth of MCF-7 clones stably transfected with the mutant ER in response to estradiol; assay type: cell-based, human; details: cells expressing the ERα mutant, calculated from the growth curves
Experimental: as §1, §2, §3

[3] = system: WT ERα and the A908G ERα mutation; experiment: Saturation binding Scatchard analyses; set-up: species or system human
breast cancer = details: patients with a history of ADH receiving tamoxifen (Fisher et al., 1998); cited from earlier work

Structure (SMILES)	doubling time ([1]; MCF-7 cells in 10^−9 M estradiol) [days]	doubling time ([1]; MCF-7 cells in 10^−12 M estradiol) [days]	doubling time ([2]; 10^−9 M of hormone) [days]	doubling time ([2]; 10^−12 M of hormone) [days]	difference in affinity between WT ERα and the A908G ERα mutation [3]	decrease in breast cancer incidence (breast cancer) [%]
C[C@]12CC[C@@H]3c4ccc(O)cc4CC[C@H]3[C@@H]1CC[C@@H]2O [estradiol]	1.3	2.2	1.3	1.3	–	–
CC/C(=C(\c1ccccc1)c1ccc(OCCN(C)C)cc1)c1ccccc1 [tamoxifen]	–	–	–	–	nor were there differences in affinity	85
